Reference: US10143638B2, “Method of treating skin with ingenol mebutate” (LEO Laboratories Limited, priority 2009, dated 2018)

Tested on: dermal fibroblasts
Test: De novo hyaluronan molecular weight ([3H]-glucosamine incorporation, gel filtration)
Type: cell-based, human
Details: PEP005 0.01-10 μg/ml, presence or absence of TGF-β1, day 1 and day 3
Description: Hyaluronan molecular weight sizing, following dermal fibroblast synthesis, was performed as previously described (Meran et al, 2008; Simpson et al, 2009). Dermal fibroblasts were seeded in 6-well tissue culture plates, in PEP005-free, Fibroblast-Serum Containing Medium (2 ml), at 1.5×10^5 cells/well. Dermal fibroblasts were maintained at 37° C., in a 5% CO2/95% air atmosphere, for 48 h, prior to washing in phosphate buffered saline (PBS, 2×2 ml) and maintenance in serum-free, Fibroblast-Serum Containing Medium (2 ml), for a further 48 h. At 48 h, the serum-free, Fibroblast-Serum Containing Medium was replenished with serum-free, Fibroblast-Serum Containing Medium (2 ml), containing 0 μg/ml, 0.01 μg/ml, 0.1 μg/ml, 1 μg/ml, 10 μg/ml or 100 μg/ml PEP005, +/−TGF-β1 (10 ng/ml) (three culture wells per PEP005 concentration), in addition to [^3H]-glucosamine (20 μCi/ml, G.E. Healthcare). The dermal fibroblasts were maintained at 37° C., in a 5% CO2/95% air atmosphere, for 24 h or 72 h. […]
Aliquots (20 μl×3) of each Extract fraction were transferred into scintillation vials, followed by the addition of 70% ethanol (600 μl) and liquid scintillant (4 ml). Scintillation vials were vortexed and [^3H]-incorporation quantified using a Packard Tri-Carb 1900CA Liquid Scintillation Analyzer (Perkin Elmer), with values obtained being expressed as disintegrations per minute (dpm). […]

SMILES: C/C=C(/C)C(=O)O[C@H]1C(C)=C[C@]23C(=O)[C@@H](C=C(CO)[C@@H](O)[C@]12O)[C@H]1[C@@H](C[C@H]3C)C1(C)C [PEP005, ingenol-3-angelate]
- molecular weight of hyaluronan synthesized: predominantly of high (>1.5×10^6 Da) and medium (<1.5×10^6-4×10^5 Da) molecular weight
